From ChEMBL document CHEMBL5634161, “Discovery of benzamide-based PI3K/HDAC dual inhibitors with marked pro-apoptosis activity in lymphoma cells” (Eur J Med Chem, 2023)
Each block holds one compound with its values, some of them ahead of it.

Columns and labels:
JeKo-1 [1] = assay: (§1) Synergistic antiproliferative activity against human JeKo-1 cells assessed as combination index at 2.5 uM incubated for 48 hrs in presence of 1.25 uM 4-(3-(4-(4-methoxy-6-morpholino-1,3,5-triazin-2-yl)phenyl)urea)-N-(2-ethylamino)ethylbenzamide by resazurin dye based fluorescence microplate reader analysis; assay type: functional
JeKo-1 [2] = assay: as §1, with “1.25” for “2.5”, “0.625” for “1.25”; assay type: functional
JeKo-1 [3] = assay: Induction of apoptosis in human JeKo-1 cells assessed as early apoptotic cells at 0.25 uM incubated for 48 hrs by Annexin-V/FITC and PI staining based flow cytometric analysis (reference value: […]); assay type: functional
JeKo-1 [4] = assay: Induction of apoptosis in human JeKo-1 cells assessed as viable cells at 0.25 uM incubated for 48 hrs by Annexin-V/FITC and PI staining based flow cytometric analysis (reference value: 94.1%); assay type: functional; settings: read-out: Activity
JeKo-1 [5] = assay: Induction of apoptosis in human JeKo-1 cells assessed as late apoptotic cells at 1 uM incubated for 48 hrs by Annexin-V/FITC and PI staining based flow cytometric analysis (reference value: 3.66%); assay type: functional
[6] = target: Phosphatidylinositol 4,5-bisphosphate 3-kinase catalytic subunit alpha isoform (Homo sapiens, UniProt P42336); assay: Inhibition of PI3Kalpha (unknown origin) using PIP2 as substrate incubated for 1 hrs in presence of ATP by ADP-Glo kinase assay
Sequence of Phosphatidylinositol 4,5-bisphosphate 3-kinase catalytic subunit alpha isoform (P42336 whole entry, canonical isoform): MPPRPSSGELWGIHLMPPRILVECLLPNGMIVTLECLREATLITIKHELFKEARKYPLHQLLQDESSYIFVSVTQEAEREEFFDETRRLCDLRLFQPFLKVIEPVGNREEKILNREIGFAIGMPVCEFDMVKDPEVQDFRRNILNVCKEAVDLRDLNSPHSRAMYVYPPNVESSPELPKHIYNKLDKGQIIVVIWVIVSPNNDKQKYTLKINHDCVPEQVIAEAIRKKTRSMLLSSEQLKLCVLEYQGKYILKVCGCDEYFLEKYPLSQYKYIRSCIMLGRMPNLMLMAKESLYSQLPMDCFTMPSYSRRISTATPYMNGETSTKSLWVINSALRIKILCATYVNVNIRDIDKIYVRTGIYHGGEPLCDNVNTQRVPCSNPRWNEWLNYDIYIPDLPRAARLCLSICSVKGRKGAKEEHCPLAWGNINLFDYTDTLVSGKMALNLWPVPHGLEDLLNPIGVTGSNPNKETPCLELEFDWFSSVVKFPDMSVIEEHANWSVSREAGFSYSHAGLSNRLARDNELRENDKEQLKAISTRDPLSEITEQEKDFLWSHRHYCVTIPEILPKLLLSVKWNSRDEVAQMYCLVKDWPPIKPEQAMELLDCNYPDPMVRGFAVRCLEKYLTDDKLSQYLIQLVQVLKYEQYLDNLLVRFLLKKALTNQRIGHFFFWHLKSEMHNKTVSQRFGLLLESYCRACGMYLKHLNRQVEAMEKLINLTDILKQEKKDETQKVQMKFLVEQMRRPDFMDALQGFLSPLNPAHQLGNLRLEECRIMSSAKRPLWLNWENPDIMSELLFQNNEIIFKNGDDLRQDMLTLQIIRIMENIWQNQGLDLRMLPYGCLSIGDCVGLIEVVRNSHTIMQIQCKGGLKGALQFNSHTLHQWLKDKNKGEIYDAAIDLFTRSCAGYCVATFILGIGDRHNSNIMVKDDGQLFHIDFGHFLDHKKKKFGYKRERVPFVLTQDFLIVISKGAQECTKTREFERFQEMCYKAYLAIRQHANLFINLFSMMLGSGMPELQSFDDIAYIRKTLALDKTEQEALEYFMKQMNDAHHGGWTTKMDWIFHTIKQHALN

JeKo-1 [7] = assay: Induction of apoptosis in human JeKo-1 cells assessed as necrotic cells at 1 uM incubated for 48 hrs by Annexin-V/FITC and PI staining based flow cytometric analysis (reference value: 1.05%); assay type: functional
JeKo-1 [8] = assay: as §1, with “5” for “2.5”, “2.5” for “1.25”; assay type: functional
JeKo-1 [9] = assay: as §1, with “1.25” for “2.5”, “2.5” for “1.25”; assay type: functional
JeKo-1 [10] = assay: Induction of apoptosis in human JeKo-1 cells assessed as early apoptotic cells at 1 uM incubated for 48 hrs by Annexin-V/FITC and PI staining based flow cytometric analysis (reference value: […]); assay type: functional
[11] = Cytotoxicity against human HL7702 cells incubated for 48 hrs by resazurin dye based fluorescence micro plate reader analysis; assay type: toxicity, cell-based; settings: HL7702 (L02) cells
HL-60 = assay: Antiproliferative activity against human HL-60 cells incubated for 48 hrs by resazurin dye based fluorescence micro plate reader analysis; assay type: functional, cell-based; settings: HL-60, 48 h
JeKo-1 [12] = assay: as §1, with “0.625” for “1.25”; assay type: functional
MDA-MB-231 = assay: Antiproliferative activity against human MDA-MB-231 cells incubated for 48 hrs by resazurin dye based fluorescence micro plate reader analysis; assay type: functional, cell-based; settings: MDA-MB-231, 48 h
JeKo-1 [13] = assay: as §1, with “0.625” for “2.5”, “5” for “1.25”; assay type: functional
JeKo-1 [14] = assay: as §1, with “1.25” for “2.5”; assay type: functional
JeKo-1 [15] = assay: as §1, with “5” for “2.5”, “0.625” for “1.25”; assay type: functional
JeKo-1 [16] = assay: as §1, with “5” for “2.5”, “5” for “1.25”; assay type: functional
JeKo-1 [17] = assay: Antiproliferative activity against human JeKo-1 cells incubated for 48 hrs by resazurin dye based fluorescence micro plate reader analysis; assay type: functional, cell-based; settings: JeKo-1, 48 h
JeKo-1 [18] = assay: Induction of apoptosis in human JeKo-1 cells assessed as necrotic cells at 0.25 uM incubated for 48 hrs by Annexin-V/FITC and PI staining based flow cytometric analysis (reference value: 1.05%); assay type: functional
JeKo-1 [19] = assay: Induction of apoptosis in human JeKo-1 cells assessed as necrotic cells at 0.5 uM incubated for 48 hrs by Annexin-V/FITC and PI staining based flow cytometric analysis (reference value: 1.05%); assay type: functional
MM1.S = assay: Antiproliferative activity against human MM1.S cells incubated for 48 hrs by resazurin dye based fluorescence micro plate reader analysis; assay type: functional, cell-based
JeKo-1 [20] = assay: Induction of apoptosis in human JeKo-1 cells assessed as viable cells at 0.5 uM incubated for 48 hrs by Annexin-V/FITC and PI staining based flow cytometric analysis (reference value: 94.1%); assay type: functional; settings: read-out: Activity
JeKo-1 [21] = assay: as §1, with “0.625” for “2.5”, “2.5” for “1.25”; assay type: functional
JeKo-1 [22] = assay: as §1, with “5” for “2.5”; assay type: functional
JeKo-1 [23] = assay: as §1, with “1.25” for “2.5”, “5” for “1.25”; assay type: functional
JeKo-1 [24] = assay: as §1, with “0.625” for “2.5”, “0.625” for “1.25”; assay type: functional
JeKo-1 [25] = assay: as §1, with “5” for “1.25”; assay type: functional
JeKo-1 [26] = assay: as §1, with “2.5” for “1.25”; assay type: functional
JeKo-1 [27] = assay: Induction of apoptosis in human JeKo-1 cells assessed as early apoptotic cells at 0.5 uM incubated for 48 hrs by Annexin-V/FITC and PI staining based flow cytometric analysis (reference value: […]); assay type: functional
JeKo-1 [28] = assay: as §1, with “0.625” for “2.5”; assay type: functional
JeKo-1 [29] = assay: Induction of apoptosis in human JeKo-1 cells assessed as viable cells at 1 uM incubated for 48 hrs by Annexin-V/FITC and PI staining based flow cytometric analysis (reference value: 94.1%); assay type: functional; settings: read-out: Activity
JeKo-1 [30] = assay: Induction of apoptosis in human JeKo-1 cells assessed as late apoptotic cells at 0.25 uM incubated for 48 hrs by Annexin-V/FITC and PI staining based flow cytometric analysis (reference value: 3.66%); assay type: functional
JeKo-1 [31] = assay: Induction of apoptosis in human JeKo-1 cells assessed as late apoptotic cells at 0.5 uM incubated for 48 hrs by Annexin-V/FITC and PI staining based flow cytometric analysis (reference value: 3.66%); assay type: functional
Histone deacetylase 3 = Histone deacetylase 3 (Homo sapiens, UniProt O15379); assay: Inhibition of HDAC3 (unknown origin) using Boc-Lys(acetyl)-AMC as substrate preincubated for 1 hrs followed by substrate addition and measured after 2 hrs by spectrophotometer based fluorometric assay
Sequence of Histone deacetylase 3 (O15379 whole entry): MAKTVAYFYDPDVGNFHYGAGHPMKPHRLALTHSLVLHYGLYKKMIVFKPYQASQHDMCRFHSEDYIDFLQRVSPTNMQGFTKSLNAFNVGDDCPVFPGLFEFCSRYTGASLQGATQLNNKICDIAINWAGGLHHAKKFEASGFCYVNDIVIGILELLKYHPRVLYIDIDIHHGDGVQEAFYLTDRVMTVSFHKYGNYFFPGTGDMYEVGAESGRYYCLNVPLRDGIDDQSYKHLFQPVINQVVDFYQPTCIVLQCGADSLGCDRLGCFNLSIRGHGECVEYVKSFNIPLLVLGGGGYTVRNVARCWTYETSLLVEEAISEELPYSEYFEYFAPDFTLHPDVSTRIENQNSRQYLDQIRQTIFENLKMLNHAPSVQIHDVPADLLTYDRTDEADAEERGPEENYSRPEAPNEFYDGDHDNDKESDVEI

Histone deacetylase 2 = Histone deacetylase 2 (Homo sapiens, UniProt Q92769); assay: Inhibition of HDAC2 (unknown origin) using Boc-Lys(acetyl)-AMC as substrate preincubated for 1 hrs followed by substrate addition and measured after 2 hrs by spectrophotometer based fluorometric assay
Sequence of Histone deacetylase 2 (Q92769 whole entry): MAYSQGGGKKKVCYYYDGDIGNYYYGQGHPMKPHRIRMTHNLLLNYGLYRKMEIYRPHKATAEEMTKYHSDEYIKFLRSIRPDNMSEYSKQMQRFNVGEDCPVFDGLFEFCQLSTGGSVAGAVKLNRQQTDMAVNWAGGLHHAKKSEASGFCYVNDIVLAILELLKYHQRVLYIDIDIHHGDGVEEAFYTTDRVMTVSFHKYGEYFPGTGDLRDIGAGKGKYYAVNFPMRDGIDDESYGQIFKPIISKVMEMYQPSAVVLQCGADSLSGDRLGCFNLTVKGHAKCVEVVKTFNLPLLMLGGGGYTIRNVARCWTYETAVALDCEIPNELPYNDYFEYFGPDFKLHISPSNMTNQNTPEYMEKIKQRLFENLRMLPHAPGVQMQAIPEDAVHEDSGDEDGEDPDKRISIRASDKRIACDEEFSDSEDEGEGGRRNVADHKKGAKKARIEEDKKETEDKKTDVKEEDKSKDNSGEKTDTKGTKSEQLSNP

Histone deacetylase 1 = Histone deacetylase 1 (Homo sapiens, UniProt Q13547); assay: Inhibition of HDAC1 (unknown origin) using Boc-Lys(acetyl)-AMC as substrate preincubated for 1 hrs followed by substrate addition and measured after 2 hrs by spectrophotometer based fluorometric assay
Sequence of Histone deacetylase 1 (Q13547 whole entry): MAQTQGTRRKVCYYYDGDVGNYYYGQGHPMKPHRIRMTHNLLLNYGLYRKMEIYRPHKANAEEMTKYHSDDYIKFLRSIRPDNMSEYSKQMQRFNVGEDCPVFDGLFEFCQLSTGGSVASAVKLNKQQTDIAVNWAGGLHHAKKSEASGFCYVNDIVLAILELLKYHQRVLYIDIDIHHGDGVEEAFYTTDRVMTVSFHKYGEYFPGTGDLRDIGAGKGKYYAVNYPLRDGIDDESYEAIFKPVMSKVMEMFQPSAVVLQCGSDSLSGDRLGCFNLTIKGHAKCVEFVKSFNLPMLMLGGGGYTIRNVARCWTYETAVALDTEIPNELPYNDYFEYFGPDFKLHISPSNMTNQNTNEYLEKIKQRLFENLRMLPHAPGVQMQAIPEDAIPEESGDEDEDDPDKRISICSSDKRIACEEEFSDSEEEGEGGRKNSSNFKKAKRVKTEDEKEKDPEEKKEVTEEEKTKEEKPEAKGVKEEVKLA

IC50 [6]: > 10000 nM | IC50 (HL-60): 2800 nM | IC50 (MDA-MB-231): 10900 nM | IC50 (MM1.S): 4700 nM
SMILES: CC(=O)Nc1ccc(C(=O)Nc2ccccc2N)cc1 [TACEDINALINE]
CI (JeKo-1 [1]): 0.443 | CI (JeKo-1 [2]): 0.629 | Activity (JeKo-1 [3]): 1.46% | viability at 0.25 µM (JeKo-1 [4]): 92.6% | Activity (JeKo-1 [5]): 4.73% | Activity (JeKo-1 [7]): 0.59% | CI (JeKo-1 [8]): 0.221 | CI (JeKo-1 [9]): 0.342 | Activity (JeKo-1 [10]): 2.3% | IC50 at 48 h [11]: > 100000 nM | CI (JeKo-1 [12]): 0.592 | CI (JeKo-1 [13]): 0.43 | CI (JeKo-1 [14]): 0.431 | CI (JeKo-1 [15]): 0.61 | CI (JeKo-1 [16]): 0.191 | IC50 (JeKo-1 [17]): 1900 nM | Activity (JeKo-1 [18]): 0.37% | Activity (JeKo-1 [19]): 0.51% | viability at 0.5 µM (JeKo-1 [20]): 92.4% | CI (JeKo-1 [21]): 0.475 | CI (JeKo-1 [22]): 0.39 | CI (JeKo-1 [23]): 0.191 | CI (JeKo-1 [24]): 0.711 | CI (JeKo-1 [25]): 0.119 | CI (JeKo-1 [26]): 0.274 | Activity (JeKo-1 [27]): 1.48% | CI (JeKo-1 [28]): 0.575 | viability at 1 µM (JeKo-1 [29]): 92.4% | Activity (JeKo-1 [30]): 5.6% | Activity (JeKo-1 [31]): 5.62%

IC50 [6]: 29.3 nM | IC50 (Histone deacetylase 3): 76.5 nM | IC50 (Histone deacetylase 2): 295 nM | IC50 (Histone deacetylase 1): 404 nM
SMILES: Nc1ccccc1NC(=O)CCCCCCNC(=O)c1ccc(NC(=O)Nc2ccc(-c3nc(N4CCOCC4)nc(N4CCOCC4)n3)cc2)cc1

IC50 [6]: 17.3 nM | IC50 (Histone deacetylase 3): 99.2 nM | IC50 (Histone deacetylase 2): 602 nM | IC50 (Histone deacetylase 1): 227 nM
SMILES: Nc1ccccc1NC(=O)CCCCCNC(=O)c1ccc(NC(=O)Nc2ccc(-c3nc(N4CCOCC4)nc(N4CCOCC4)n3)cc2)cc1

IC50 [6]: 7.9 nM | IC50 (Histone deacetylase 3): 54 nM | IC50 (Histone deacetylase 2): 247 nM | IC50 (Histone deacetylase 1): 211 nM
SMILES: Nc1ccccc1NC(=O)CCCCCNC(=O)c1ccc(NC(=O)Nc2ccc(-c3nc(OC4CCOC4)nc(N4CCOCC4)n3)cc2)cc1 (centres undefined)

IC50 [6]: 20.5 nM | IC50 (Histone deacetylase 2): > 10000 nM | IC50 (Histone deacetylase 1): > 10000 nM
SMILES: COc1nc(-c2ccc(NC(=O)Nc3ccc(C(=O)Nc4ccc(F)c(F)c4N)cc3)cc2)nc(N2CCOCC2)n1

IC50 [6]: 16.6 nM | IC50 (Histone deacetylase 3): 69.3 nM | IC50 (Histone deacetylase 2): 241 nM | IC50 (Histone deacetylase 1): 219 nM
SMILES: Nc1ccccc1NC(=O)CCCCCCNC(=O)c1ccc(NC(=O)Nc2ccc(-c3nc(OC4CCOC4)nc(N4CCOCC4)n3)cc2)cc1 (centres undefined)

IC50 [6]: 9 nM | IC50 (Histone deacetylase 3): 56.1 nM | IC50 (Histone deacetylase 2): 168 nM | IC50 (Histone deacetylase 1): 178 nM
SMILES: Nc1ccccc1NC(=O)CCCCCCNC(=O)c1ccc(NC(=O)Nc2ccc(-c3nc(OC4COC4)nc(N4CCOCC4)n3)cc2)cc1

IC50 [6]: 11.6 nM | IC50 (Histone deacetylase 3): > 10000 nM | IC50 (Histone deacetylase 2): > 10000 nM | IC50 (Histone deacetylase 1): > 10000 nM
SMILES: Nc1ccccc1NC(=O)CCCNC(=O)c1ccc(NC(=O)Nc2ccc(-c3nc(N4CCOCC4)nc(N4CCOCC4)n3)cc2)cc1

IC50 [6]: 51.7 nM | IC50 (Histone deacetylase 3): > 10000 nM | IC50 (Histone deacetylase 2): > 10000 nM | IC50 (Histone deacetylase 1): > 10000 nM
SMILES: Nc1ccccc1NC(=O)CCNC(=O)c1ccc(NC(=O)Nc2ccc(-c3nc(N4CCOCC4)nc(N4CCOCC4)n3)cc2)cc1

IC50 [6]: 6.5 nM | IC50 (Histone deacetylase 3): 134 nM | IC50 (Histone deacetylase 2): > 10000 nM | IC50 (Histone deacetylase 1): > 10000 nM
SMILES: Nc1ccccc1NC(=O)c1ccc(NC(=O)Nc2ccc(-c3nc(N4CCOCC4)nc(N4CCOCC4)n3)cc2)cc1
